In patent US20170121315A1, “HETEROBICYCLICALLY SUBSTITUTED 4-OXOBUTANE ACID DERIVATIVES AND USE THEREOF” (priority 2014, published 2017):

Columns and labels:
Assay type in all cases: biochemical
MMP-16 = target: T1, MMP-16 (Homo sapiens, UniProt P51512); assay: In vitro MMP-16 inhibition test; details: human MMP-16
T1 construct: purchased R&D Systems 1785-MP
Excerpt: (§1) The MMP-mediated amidolytic cleavage of a suitable peptide substrate leads to an increase in fluorescent light here too. The signal intensity of the fluorescent light is directly proportional to the enzyme activity. The active concentration of a test compound at which half the enzyme is inhibited (50% signal intensity of the fluorescent light) is reported as the IC50 value.
Recombinant MMP-16 (R&D Systems, 1785-MP) is enzymatically activated in accordance with the manufacturer's instructions using recombinant furin (R&D Systems, 1503-SE). 1 μl of the test compound to be analysed (as a solution in DMSO, suitable concentrations e.g. 1 nM to 30 μM) is pipetted into 24 μl of activated enzyme (final concentration e.g. 1 nM) in reaction buffer (50 mM Tris/HCl pH 7.5, 10 mM CaCl2, 150 mM NaCl, 0.05% Brij®-35) in a white 384-hole microtiter plate (MTP). The enzymatic reaction is started by adding the intramolecularly quenched Mca-Lys-Pro-Leu-Gly-Leu-Dpa(Dnp)-Ala-Arg-NH2 substrate (final concentration e.g. 5 μM; R&D Systems, ES-010), so as to result in a total test volume of 50 μl. The course of the MMP-16 reaction is measured by measuring the fluorescence intensity (excitation 320 nm, emission 410 nm) over a suitable period of time (e.g. over 120 min at a temperature of 32° C.).

MMP-9 = target: T2, MMP-9 (Homo sapiens, UniProt P14780); assay: In vitro MMP-9 inhibition test; details: human MMP-9
T2 construct: purchased R&D Systems 911-MP
T2 sequence (P14780 107-707 limits assumed): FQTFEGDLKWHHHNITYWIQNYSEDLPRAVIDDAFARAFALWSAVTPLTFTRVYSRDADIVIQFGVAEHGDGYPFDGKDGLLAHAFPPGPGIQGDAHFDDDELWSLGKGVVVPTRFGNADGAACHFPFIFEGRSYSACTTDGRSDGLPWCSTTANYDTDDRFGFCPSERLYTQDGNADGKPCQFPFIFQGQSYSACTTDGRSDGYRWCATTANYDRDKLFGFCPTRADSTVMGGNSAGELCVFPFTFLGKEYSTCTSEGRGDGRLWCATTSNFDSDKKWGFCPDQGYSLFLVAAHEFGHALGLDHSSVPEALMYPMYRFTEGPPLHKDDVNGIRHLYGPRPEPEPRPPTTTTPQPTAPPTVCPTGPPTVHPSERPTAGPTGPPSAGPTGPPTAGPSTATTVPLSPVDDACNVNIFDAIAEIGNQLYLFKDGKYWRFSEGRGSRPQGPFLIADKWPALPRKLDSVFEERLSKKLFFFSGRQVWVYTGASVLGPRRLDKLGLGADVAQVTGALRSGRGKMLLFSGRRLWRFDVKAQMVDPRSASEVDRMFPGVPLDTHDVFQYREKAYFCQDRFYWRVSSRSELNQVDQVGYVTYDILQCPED
Excerpt: as §1
(§2) Recombinant MMP-9 (R&D Systems, 911-MP) is chemically activated in accordance with the manufacturer's instructions using APMA. 1 μl of the test compound to be analysed (as a solution in DMSO, suitable concentrations e.g. 1 nM to 30 μM) is pipetted into 24 μl of activated enzyme (final concentration e.g. 0.1 nM) in reaction buffer (50 mM Tris/HCl pH 7.5, 10 mM CaCl2, 150 mM NaCl, 0.05% Brij®-35) in a white 384-hole microtiter plate (MTP). The enzymatic reaction is started by adding the intramolecularly quenched Mca-Pro-Leu-Gly-Leu-Dpa(Dnp)-Ala-Arg-NH2 substrate (final concentration e.g. 10 μM; R&D Systems, ES-001), so as to result in a total test volume of 50 μl. The course of the MMP-9 reaction is measured by measuring the fluorescence intensity (excitation 320 nm, emission 410 nm) over a suitable period of time (e.g. over 120 min at a temperature of 32° C.).

MMP-2 = target: T3, MMP-2 (Homo sapiens, UniProt P08253); assay: In vitro MMP-2 inhibition test; details: human MMP-2
T3 construct: purchased R&D Systems 902-MP
T3 sequence (P08253 110-660): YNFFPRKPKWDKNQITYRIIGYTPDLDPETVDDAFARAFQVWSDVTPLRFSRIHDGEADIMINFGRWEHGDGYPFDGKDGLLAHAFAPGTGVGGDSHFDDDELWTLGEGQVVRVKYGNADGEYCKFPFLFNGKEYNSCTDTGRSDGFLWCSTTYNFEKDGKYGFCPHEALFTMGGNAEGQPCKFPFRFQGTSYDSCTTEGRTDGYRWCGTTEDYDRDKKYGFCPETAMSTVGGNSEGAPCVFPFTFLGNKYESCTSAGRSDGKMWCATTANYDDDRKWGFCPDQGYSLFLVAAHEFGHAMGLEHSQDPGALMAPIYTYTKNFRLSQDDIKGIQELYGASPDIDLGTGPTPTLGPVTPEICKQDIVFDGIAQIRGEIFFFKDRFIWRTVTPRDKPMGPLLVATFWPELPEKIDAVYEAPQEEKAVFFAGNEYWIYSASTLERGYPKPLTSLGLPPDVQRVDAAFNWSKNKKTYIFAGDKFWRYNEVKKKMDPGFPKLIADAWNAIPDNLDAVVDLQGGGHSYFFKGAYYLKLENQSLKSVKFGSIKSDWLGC
Excerpt: as §1
as §2, with “MMP-2” for “MMP-9”, “902-MP)” for “911-MP)”, “2” for “0.1”

MMP-3 = target: T4, MMP-3 (Homo sapiens, UniProt P08254); assay: In vitro MMP-3 inhibition test; details: human MMP-3
T4 construct: purchased R&D Systems 513-MP
T4 sequence (P08254 100-477): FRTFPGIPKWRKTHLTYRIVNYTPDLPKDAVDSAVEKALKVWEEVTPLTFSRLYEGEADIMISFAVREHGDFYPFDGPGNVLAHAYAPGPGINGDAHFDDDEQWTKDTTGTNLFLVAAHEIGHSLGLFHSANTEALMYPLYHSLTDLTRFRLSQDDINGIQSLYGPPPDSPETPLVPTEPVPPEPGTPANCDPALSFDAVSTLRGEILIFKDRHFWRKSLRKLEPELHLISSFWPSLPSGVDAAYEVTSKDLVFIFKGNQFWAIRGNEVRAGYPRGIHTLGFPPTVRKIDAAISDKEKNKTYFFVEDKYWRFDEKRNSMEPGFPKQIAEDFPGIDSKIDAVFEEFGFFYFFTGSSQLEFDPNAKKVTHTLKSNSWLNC
Excerpt: as §1
as §2, with “MMP-3” for “MMP-9”, “513-MP)” for “911-MP)”, “2” for “0.1”, “Mca-Arg-Pro-Lys-Pro-Val-Glu-Nval-Trp-Arg-Lys(Dnp)-NH2” for “Mca-Pro-Leu-Gly-Leu-Dpa(Dnp)-Ala-Arg-NH2”, “ES-002),” for “ES-001),”

T1 sequence (P51512 120-564 limits assumed): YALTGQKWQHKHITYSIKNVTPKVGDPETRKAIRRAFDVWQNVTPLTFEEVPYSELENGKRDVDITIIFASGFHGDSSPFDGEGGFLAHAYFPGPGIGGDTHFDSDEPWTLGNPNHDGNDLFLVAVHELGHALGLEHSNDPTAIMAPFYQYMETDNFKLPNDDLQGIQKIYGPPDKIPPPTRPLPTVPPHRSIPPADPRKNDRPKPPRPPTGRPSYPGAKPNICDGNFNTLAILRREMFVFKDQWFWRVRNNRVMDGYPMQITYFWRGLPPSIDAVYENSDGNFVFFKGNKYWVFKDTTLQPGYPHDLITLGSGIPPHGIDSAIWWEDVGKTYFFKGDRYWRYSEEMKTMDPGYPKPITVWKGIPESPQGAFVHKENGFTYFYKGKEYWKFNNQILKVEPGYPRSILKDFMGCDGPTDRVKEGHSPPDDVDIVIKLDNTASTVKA

| Structure (SMILES) | IC50 (MMP-16) [µM] | IC50 (MMP-9) [µM] | IC50 (MMP-2) [µM] | IC50 (MMP-3) [µM] |
| --- | --- | --- | --- | --- |
| O=C(CC(CCn1nnc2ccccc2c1=O)C(=O)O)c1cc2cc(OCCc3ccccc3Cl)ccc2o1 (racemic) [Example 1, (+/−)-4-{5-[2-(2-Chlorophenyl)ethoxy]-1-benzofur-2-yl}-4-oxo-2-[2-(4-oxo-1,2,3-benzotriazin-3(4H)-yl)ethyl]butanoic acid] | > 40 | > 40 | > 40 | > 40 |
| O=C(CC(CCn1nnc2ccccc2c1=O)C(=O)O)c1cc2cc(OCCc3ccc(Cl)cc3)ccc2o1 (racemic) [Example 2, (+/−)-4-{5-[2-(4-Chlorophenyl)ethoxy]-1-benzofur-2-yl}-4-oxo-2-[2-(4-oxo-1,2,3-benzotriazin-3(4H)-yl)ethyl]butanoic acid] | > 40 | 24 | 4.6 | 25 |
| O=C(CC(CCn1nnc2ccccc2c1=O)C(=O)O)c1cc2cc(OCCCc3ccccc3)ccc2o1 (racemic) [Example 37, (+/−)-4-Oxo-2-[2-(4-oxo-1,2,3-benzotriazin-3(4H)-yl)ethyl]-4-[5-(3-phenylpropoxy)-1-benzofur-2-yl]butanoic acid] | > 40 | 17 | 3.3 | 39 |
| O=C(CC(CCn1nnc2ccccc2c1=O)C(=O)O)c1cc2cc(OCc3ccc(C(F)(F)F)cc3)ccc2o1 (racemic) [Example 44, (+/−)-4-Oxo-2-[2-(4-oxo-1,2,3-benzotriazin-3(4H)-yl)ethyl]-4-(5-{[4-(trifluoromethyl)benzyl]oxy}-1-benzofur-2-yl)butanoic acid] | > 40 | 9.9 | > 40 | 23 |
| O=C(CC(CCn1nnc2ccccc2c1=O)C(=O)O)c1cc2cc(OCc3cccc(Cl)c3)ccc2o1 (racemic) [Example 50, (+/−)-4-{5-[(3-Chlorobenzyl)oxy]-1-benzofur-2-yl}-4-oxo-2-[2-(4-oxo-1,2,3-benzotriazin-3(4H)-yl)ethyl]butanoic acid] | > 40 | 26 | 3.8 | 34 |
| Cc1cccc(COc2ccc3oc(C(=O)CC(CCn4nnc5ccccc5c4=O)C(=O)O)cc3c2)c1 (racemic) [Example 51, (+/−)-4-{5-[(3-Methylbenzyl)oxy]-1-benzofur-2-yl}-4-oxo-2-[2-(4-oxo-1,2,3-benzotriazin-3(4H)-yl)ethyl]butanoic acid] | > 40 | 30 | 19 | > 40 |
| O=C(CC(CCn1nnc2ccccc2c1=O)C(=O)O)c1cc2ccc(OCCc3ccccc3)cc2o1 (racemic) [Example 73, (+/−)-4-Oxo-2-[2-(4-oxo-1,2,3-benzotriazin-3(4H)-yl)ethyl]-4-[6-(2-phenylethoxy)-1-benzofur-2-yl]butanoic acid] | > 40 | 2.2 | 1.3 | 29 |

The next lines start with the values.

| IC50 (MMP-16) [µM] | IC50 (MMP-9) [µM] | IC50 (MMP-2) [µM] | IC50 (MMP-3) [µM] | Structure (SMILES) |
| --- | --- | --- | --- | --- |
| > 40 | 9.1 | 5 | > 40 | O=C(CC(CCn1nnc2ccccc2c1=O)C(=O)O)c1cc2cc(OCC3CCOCC3)ccc2o1 (racemic) [Example 5, (+/−)-4-Oxo-2-[2-(4-oxo-1,2,3-benzotriazin-3(4H)-yl)ethyl]-4-[5-(tetrahydro-2H-pyran-4-ylmethoxy)-1-benzofur-2-yl]butanoic acid] |
| > 40 | 3.4 | 0.43 | 26 | O=C(CC(CCn1nnc2ccccc2c1=O)C(=O)O)c1cc2cc(OCCC3CCOCC3)ccc2o1 (racemic) [Example 6, (+/−)-4-Oxo-2-[2-(4-oxo-1,2,3-benzotriazin-3(4H)-yl)ethyl]-4-{5-[2-(tetrahydro-2H-pyran-4-yl)ethoxy]-1-benzofur-2-yl}butanoic acid] |
| > 40 | 5 | 0.92 | 27 | O=C(CC(CCn1nnc2ccccc2c1=O)C(=O)O)c1cc2cc(OCCC3CCCC3)ccc2o1 (racemic) [Example 7, (+/−)-4-[5-(2-Cyclopentylethoxy)-1-benzofur-2-yl]-4-oxo-2-[2-(4-oxo-1,2,3-benzotriazin-3(4H)-yl)ethyl]butanoic acid] |
| > 40 | 13 | > 40 | > 40 | O=C(CC(CCn1nnc2ccccc2c1=O)C(=O)O)c1cc2cc(OCC3CCCCC3)ccc2o1 (racemic) [Example 8, (+/−)-4-[5-(Cyclohexylmethoxy)-1-benzofur-2-yl]-4-oxo-2-[2-(4-oxo-1,2,3-benzotriazin-3(4H)-yl)ethyl]butanoic acid] |
| > 40 | 9.7 | 4.4 | > 40 | CCCCCCCOc1ccc2oc(C(=O)CC(CCn3nnc4ccccc4c3=O)C(=O)O)cc2c1 (racemic) [Example 31, (+/−)-4-[5-(Heptyloxy)-1-benzofur-2-yl]-4-oxo-2-[2-(4-oxo-1,2,3-benzotriazin-3(4H)-yl)ethyl]butanoic acid] |
| > 40 | 10 | 10 | > 40 | CCCOc1ccc2cc(C(=O)CC(CCn3nnc4ccccc4c3=O)C(=O)O)oc2c1 (racemic) [Example 58, (+/−)-4-Oxo-2-[2-(4-oxo-1,2,3-benzotriazin-3(4H)-yl)ethyl]-4-(6-propoxy-1-benzofur-2-yl)butanoic acid] |
| > 40 | > 40 | > 40 | > 40 | O=C(CC(CCn1nnc2ccccc2c1=O)C(=O)O)c1cc2ccc(OCCCC3CCCCC3)cc2o1 (racemic) [Example 71, (+/−)-4-[6-(3-Cyclohexylpropoxy)-1-benzofur-2-yl]-4-oxo-2-[2-(4-oxo-1,2,3-benzotriazin-3(4H)-yl)ethyl]butanoic acid] |
